According to patent US12116388B2, “Amylin receptor agonists” (Novo Nordisk A/S, priority 2022, dated 2024):
Starred links: 1 amine or outer side, 2 acyl side, 3 side chain; linkers in the order of their positions; H or OH if unused. Residues, ends and D or L forms follow the SMILES beside them. *: point of attachment. C18 diacid = O=C(O)CCCCCCCCCCCCCCCCC(=O)*; C16 diacid = O=C(O)CCCCCCCCCCCCCCC(=O)*; γGlu = O=C(O)[C@H](CCC(=O)[*:2])N[*:1]

How the values were obtained:
[1] = target: T1, human amylin receptor (hAMYR3) (Homo sapiens, UniProt O60896+P30988); assay: Human amylin receptor (hAMYR3) in vitro potency assay, CRE-luciferase reporter in BHK cells; format: cell-based; conditions: BHK hAMYR3/CRE-Luc cells, 3 hours incubation, assay buffer with 1% ovalbumin
T1 construct: host or cells: BHK (Baby Hamster Kidney), Hollex-1 cell line further transfected with RAMP3
T1 sequence (O60896 24-148, one chain of several): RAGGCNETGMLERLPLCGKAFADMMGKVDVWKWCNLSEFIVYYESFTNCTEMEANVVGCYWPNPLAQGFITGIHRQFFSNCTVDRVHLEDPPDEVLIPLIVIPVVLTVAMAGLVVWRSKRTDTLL
In short: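 Luminescence from a CRE-driven luciferase reporter reflects cAMP-mediated receptor activation. Peptides were serially diluted (7 concentrations, 7-fold steps, typically starting near 10 nM) in buffer with 1% ovalbumin and applied for 3 h at 37 °C to BHK cells co-expressing calcitonin receptor (a) and RAMP3.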

[2] = target: T2, human calcitonin receptor (hCTR) (Homo sapiens, UniProt P30988); assay: Human calcitonin receptor (hCTR) in vitro potency assay, CRE-luciferase reporter in BHK cells; format: cell-based; conditions: BHK hCTR/CRE-Luc cells, 3 hours incubation, assay buffer with 1% ovalbumin; read-out: hCalcR potency, EC50
T2 construct: host or cells: BHK (Baby Hamster Kidney), Hollex-1 cell line
T2 sequence (P30988 25-474): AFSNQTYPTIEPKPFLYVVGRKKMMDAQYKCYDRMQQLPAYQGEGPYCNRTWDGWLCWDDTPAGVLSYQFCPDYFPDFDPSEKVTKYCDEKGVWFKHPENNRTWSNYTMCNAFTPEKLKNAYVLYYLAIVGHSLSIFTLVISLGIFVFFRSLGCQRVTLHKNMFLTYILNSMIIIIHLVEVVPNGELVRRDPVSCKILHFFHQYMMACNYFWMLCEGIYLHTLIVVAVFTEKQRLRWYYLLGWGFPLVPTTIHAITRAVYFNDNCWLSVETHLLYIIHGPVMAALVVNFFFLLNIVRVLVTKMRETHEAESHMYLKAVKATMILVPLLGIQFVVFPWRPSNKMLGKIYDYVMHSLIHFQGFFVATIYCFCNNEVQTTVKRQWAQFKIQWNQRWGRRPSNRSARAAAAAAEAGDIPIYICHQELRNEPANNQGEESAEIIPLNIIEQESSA
In short: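 Luciferase signal from a CRE reporter served as the cAMP read-out after 3 h, 37 °C exposure to compound. Cells were stably transfected BHK expressing hCTR, and the buffer was phenol-red-free DMEM with 10 mM HEPES and 1% ovalbumin. Compounds were tested as 7-point, 7-fold dilutions, often from about 10 nM.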

Row | SMILES | EC50 [1] [pM] | EC50 [2] [pM]
1 | CC[C@H](C)[C@H](NC(=O)[C@@H]1CCCN1C(=O)CNC(=O)[C@H](Cc1ccccc1)NC(=O)[C@H](CC(N)=O)NC(=O)[C@H](CC(=O)O)NC(=O)[C@H](CO)NC(=O)[C@H](CO)NC(=O)[C@H](Cc1c[nH]cn1)NC(=O)[C@H](Cc1c[nH]cn1)NC(=O)[C@H](CC(C)C)NC(=O)[C@H](Cc1ccccc1)NC(=O)[C@H](CCC(=O)O)NC(=O)[C@H](C)NC(=O)[C@H](CC(C)C)NC(=O)[C@H](CCCNC(=N)N)NC(=O)[C@H](C)NC(=O)[C@@H](NC(=O)[C@H](CCC(N)=O)NC(=O)[C@H](C)NC(=O)[C@@H](NC(=O)[C@H](CO)NC(=O)[C@H](CC(C)C)NC(=O)[C@H](C)NC(=O)[C@H](CO)NC(=O)[C@H](C)NC(=O)CC[C@H](NC(=O)CCCCCCCCCCCCCCCCC(=O)O)C(=O)O)[C@@H](C)O)[C@@H](C)O)C(=O)N[C@@H](CC(C)C)C(=O)N1CCC[C@H]1C(=O)N1CCC[C@H]1C(=O)N[C@H](C(=O)N[C@@H](CC(=O)O)C(=O)N[C@H](C(=O)NCC(=O)N[C@@H](CO)C(=O)N[C@@H](CC(N)=O)C(=O)N[C@H](C(=O)N1CCC[C@H]1C(N)=O)[C@@H](C)O)C(C)C)[C@@H](C)O [Compound 23, N^1-[(4S)-4-carboxy-4-(17-carboxyheptadecanoylamino)butanoyl]-[Ala1,Ser2,Ala3,Leu4,Ser5,Ala7,Gln8,Ala10,Glu14,His17,Asp21,Pro25,Pro28,Pro29,Asp31,Pro37]-human amylin] ({C18 diacid-γGlu}-ASALSTAQTARLAEFLHHSSDNFGPILPPTDVGSNTP-NH2) | 1.62 | 1.58
2 | CC[C@H](C)[C@H](NC(=O)[C@H](C)NC(=O)CNC(=O)[C@H](Cc1ccccc1)NC(=O)[C@@H]1CCCN1C(=O)[C@H](CC(=O)O)NC(=O)[C@H](CO)NC(=O)[C@H](CO)NC(=O)[C@H](Cc1c[nH]cn1)NC(=O)[C@H](Cc1c[nH]cn1)NC(=O)[C@H](CC(C)C)NC(=O)[C@H](Cc1ccccc1)NC(=O)[C@H](CCC(=O)O)NC(=O)[C@H](C)NC(=O)[C@H](CC(C)C)NC(=O)[C@H](CCCNC(=N)N)NC(=O)[C@H](CCC(N)=O)NC(=O)[C@@H](NC(=O)[C@H](CCC(N)=O)NC(=O)[C@H](CC(C)C)NC(=O)[C@@H](NC(=O)[C@H](CO)NC(=O)[C@H](CC(C)C)NC(=O)[C@H](Cc1c[nH]cn1)NC(=O)[C@H](CO)NC(=O)[C@H](C)NC(=O)CC[C@H](NC(=O)CCCCCCCCCCCCCCCCC(=O)O)C(=O)O)[C@@H](C)O)[C@@H](C)O)C(=O)N1CCC[C@H]1C(=O)N[C@@H](CO)C(=O)N[C@@H](CO)C(=O)N[C@H](C(=O)N[C@@H](CC(=O)O)C(=O)N[C@H](C(=O)NCC(=O)N1CCC[C@H]1C(=O)N[C@@H](CC(=O)O)C(=O)N[C@H](C(=O)N1CCC[C@H]1C(N)=O)[C@@H](C)O)C(C)C)[C@@H](C)O [Compound 33, N^1-[(4S)-4-carboxy-4-(17-carboxyheptadecanoylamino)butanoyl]-[Ala1,Ser2,His3,Leu4,Ser5,Leu7,Gln8,Glu14,His17,Asp21,Pro22,Pro27,Asp31,Pro34,Asp35,Pro37]-human amylin] ({C18 diacid-γGlu}-ASHLSTLQTQRLAEFLHHSSDPFGAIPSSTDVGPDTP-NH2) | 1.69 | 1.74
3 | CC[C@H](C)[C@H](NC(=O)[C@@H]1CCCN1C(=O)CNC(=O)[C@H](Cc1ccccc1)NC(=O)[C@H](Cc1c[nH]cn1)NC(=O)[C@H](Cc1c[nH]cn1)NC(=O)[C@H](CC(C)C)NC(=O)[C@H](Cc1ccccc1)NC(=O)[C@H](CCC(=O)O)NC(=O)[C@H](C)NC(=O)[C@H](CC(C)C)NC(=O)[C@H](CCCNC(=N)N)NC(=O)[C@H](CCC(N)=O)NC(=O)[C@@H](NC(=O)[C@H](CCC(N)=O)NC(=O)[C@H](C)NC(=O)[C@@H](NC(=O)[C@H](CO)NC(=O)[C@H](CC(C)C)NC(=O)[C@H](Cc1c[nH]cn1)NC(=O)[C@H](CO)NC(=O)[C@H](C)NC(=O)CC[C@H](NC(=O)CCCCCCCCCCCCCCCCC(=O)O)C(=O)O)[C@@H](C)O)[C@@H](C)O)C(=O)N[C@@H](CC(C)C)C(=O)N1CCC[C@H]1C(=O)N1CCC[C@H]1C(=O)N[C@H](C(=O)N[C@@H](CC(=O)O)C(=O)N[C@H](C(=O)NCC(=O)N[C@@H](CO)C(=O)N[C@@H](CCC(=O)O)C(=O)N[C@H](C(=O)N1CCC[C@H]1C(N)=O)[C@@H](C)O)C(C)C)[C@@H](C)O [Compound 28, N^1-[(4S)-4-carboxy-4-(17-carboxyheptadecanoylamino)butanoyl]-[Ala1,Ser2,His3,Leu4,Ser5,Ala7,Gln8,Glu14,His17,Pro25,Pro28,Pro29,Asp31,Glu35,Pro37],des-(19-22)-human amylin] ({C18 diacid-γGlu}-ASHLSTAQTQRLAEFLHHFGPILPPTDVGSETP-NH2) | 2.06 | 1.72
4 | CC[C@H](C)[C@H](NC(=O)[C@@H]1CCCN1C(=O)CNC(=O)[C@H](Cc1ccccc1)NC(=O)[C@H](Cc1c[nH]cn1)NC(=O)[C@H](Cc1c[nH]cn1)NC(=O)[C@H](CC(C)C)NC(=O)[C@H](Cc1ccccc1)NC(=O)[C@H](CCC(=O)O)NC(=O)[C@H](C)NC(=O)[C@H](CC(C)C)NC(=O)[C@H](CCCNC(=N)N)NC(=O)[C@H](CCC(N)=O)NC(=O)[C@@H](NC(=O)[C@H](CCC(N)=O)NC(=O)[C@H](C)NC(=O)[C@@H](NC(=O)[C@H](CO)NC(=O)[C@H](CC(C)C)NC(=O)[C@H](CO)NC(=O)CNC(=O)[C@H](C)NC(=O)CC[C@H](NC(=O)CC[C@H](NC(=O)CCCCCCCCCCCCCCCCC(=O)O)C(=O)O)C(=O)O)[C@@H](C)O)[C@@H](C)O)C(=O)N[C@@H](CC(C)C)C(=O)N1CCC[C@H]1C(=O)N1CCC[C@H]1C(=O)N[C@H](C(=O)N[C@@H](CC(=O)O)C(=O)N[C@H](C(=O)NCC(=O)N[C@@H](CO)C(=O)N[C@@H](CCC(=O)O)C(=O)N[C@H](C(=O)N1CCC[C@H]1C(N)=O)[C@@H](C)O)C(C)C)[C@@H](C)O [Compound 30, N^1-[(4S)-4-carboxy-4-[[(4S)-4-carboxy-4-(17-carboxyheptadecanoylamino)butanoyl]amino]butanoyl]-[Ala1,Gly2,Ser3,Leu4,Ser5,Ala7,Gln8,Glu14,His17,Pro25,Pro28,Pro29,Asp31,Glu35,Pro37],des-(19-22)-human amylin] ({C18 diacid-γGlu-γGlu}-AGSLSTAQTQRLAEFLHHFGPILPPTDVGSETP-NH2) | 2.37 | 2.07
5 | CC[C@H](C)[C@H](NC(=O)[C@@H]1CCCN1C(=O)CNC(=O)[C@H](Cc1ccccc1)NC(=O)[C@H](CC(N)=O)NC(=O)[C@H](CC(=O)O)NC(=O)[C@H](CO)NC(=O)[C@H](CO)NC(=O)[C@H](Cc1c[nH]cn1)NC(=O)[C@H](Cc1c[nH]cn1)NC(=O)[C@H](CC(C)C)NC(=O)[C@H](Cc1ccccc1)NC(=O)[C@H](CCC(=O)O)NC(=O)[C@H](C)NC(=O)[C@H](CC(C)C)NC(=O)[C@H](CCCNC(=N)N)NC(=O)[C@H](C)NC(=O)[C@@H](NC(=O)[C@H](CCC(N)=O)NC(=O)[C@H](C)NC(=O)[C@@H](NC(=O)[C@H](CO)NC(=O)[C@H](CC(C)C)NC(=O)[C@H](Cc1c[nH]cn1)NC(=O)[C@H](CO)NC(=O)[C@H](C)NC(=O)CC[C@H](NC(=O)CCCCCCCCCCCCCCC(=O)O)C(=O)O)[C@@H](C)O)[C@@H](C)O)C(=O)N[C@@H](CC(C)C)C(=O)N1CCC[C@H]1C(=O)N1CCC[C@H]1C(=O)N[C@H](C(=O)N[C@@H](CC(=O)O)C(=O)N[C@H](C(=O)NCC(=O)N[C@@H](CO)C(=O)N[C@@H](CC(N)=O)C(=O)N[C@H](C(=O)N1CCC[C@H]1C(N)=O)[C@@H](C)O)C(C)C)[C@@H](C)O [Compound 20, N^1-[(4S)-4-carboxy-4-(15-carboxypentadecanoylamino)butanoyl]-[Ala1,Ser2,His3,Leu4,Ser5,Ala7,Gln8,Ala10,Glu14,His17,Asp21,Pro25,Pro28,Pro29,Asp31,Pro37]-human amylin] ({C16 diacid-γGlu}-ASHLSTAQTARLAEFLHHSSDNFGPILPPTDVGSNTP-NH2) | 1.62 | 1.5
